The results in this text go back to ChEMBL document CHEMBL5050844 (2019).

Bounds are passed on as bounds.

What all share (format): functional
Assay [1] in a line: Induction of anti-CD3 antibodies-stimulated human T cell activation in immunocompetent mouse assessed fold increase in IFN-gamma secretion at 90 mg/kg, ip administered twice a day.
A short description of assay [2]: Induction of anti-CD3 antibodies-stimulated human T cell activation in immunocompetent mouse assessed fold increase in TNF-alpha secretion at 90 mg/kg, ip administered thrice a day.
Assay [3] is described as follows: Induction of anti-CD3 antibodies-stimulated human T cell activation in immunocompetent mouse assessed fold increase in IL-2 secretion at 90 mg/kg, ip administered twice a day.
Assay [4] can be described thus: Induction of anti-CD3 antibodies-stimulated human T cell activation in immunocompetent mouse assessed fold increase in IFN-gamma secretion at 90 mg/kg, ip administered thrice a day.
Assay [5] in a line: Induction of anti-CD3 antibodies-stimulated human CD8+ T cell activation in immunocompetent mouse assessed fold increase in CD25 expression at 90 mg/kg, ip administered twice a day.
Assay [6] is described as follows: Induction of anti-CD3 antibodies-stimulated human T cell activation in immunocompetent mouse assessed fold increase in IL-2 secretion at 90 mg/kg, ip administered thrice a day.
A short description of assay [7]: Induction of anti-CD3 antibodies-stimulated human T cell activation in immunocompetent mouse assessed fold increase in TNFalpha secretion at 90 mg/kg, ip administered twice a day.
Assay [8] can be described thus: Induction of anti-CD3 antibodies-stimulated human CD8+ T cell activation in immunocompetent mouse assessed fold increase in CD25 expression at 45 mg/kg, po administered twice a day.
Further: reference of the scale not given here.

Turning to `C[C@@H](Sc1nncn1C)c1cccc(NC(=O)c2cccc(C(F)(F)F)n2)c1`, the “fold change (FC)” value in assay [1], in assay [2], in assay [3], in assay [4], in assay [5] and in assay [6] was less than 1 in each case. The “fold change (FC)” value in assay [7] came out at 1.
On to `C[C@H](Sc1nncn1C)c1cccc(NC(=O)c2cccc(C(F)(F)F)n2)c1`, for which the “fold change (FC)” value is recorded as 1 in assay [1]; more than 2.5 in assay [2]; more than 2.5 in assay [3]; 2.01 in assay [4]; less than 1 in assay [5]; more than 2.5 in assay [6]. Also, the “fold change (FC)” value in assay [7] was more than 2.5.
For `Cc1cc(C(=O)Nc2cccc(C3(Cc4nncn4C)COC3)c2)nc(C2CC2)n1`, the “fold change (FC)” value in assay [8] turned out to be 1.
On the same count and under the same terms, to `Cn1cnnc1CC1(c2cccc(N3Cc4c(cc(CN5CCC6(CC6)C5)cc4C(F)(F)F)C3=O)c2)COC1` belongs 1.
